From patent publication US20150218120A1 (The Regents of the University of California, priority 2011, published 2015)
Where “and” joins values, the source holds several entries; their conditions need not be identical. Equal values may be shown once. Read-outs that look alike come from different tables or passages of the source.

Assays:
[1] = target: T1, HIV-1 IN (Human immunodeficiency virus type 1 group M subtype B, UniProt P12497); assay: HIV-1 IN 3′-processing (3P) gel-based catalytic assay; type: biochemical; parameters: made in house
Source text: As described above, HIV-1 IN has two functions: 3′-processing (3P) and strand transfer (ST).
Gels were dried and reaction products were visualized and quantified with a Typhoon 8600 (GE Healthcare, Little Chalfont, Buckinghamshire, UK).

[2] = target: T1, HIV-1 IN; assay: HIV-1 IN strand transfer (ST) gel-based catalytic assay; type: biochemical; parameters: made in house; conditions: for IC50: Strand Transfer IC50, 32P-end labeled oligonucleotides in solution, gel-based separation
Source text: As described above, HIV-1 IN has two functions: 3′-processing (3P) and strand transfer (ST). […] All 21 RCD compounds were screened for inhibitory activity against the 3P and ST reactions using published protocols (Metifiot M, et al., Biochemistry 49:3715-3722 (2010); Marchand C, Neamati N, & Pommier Y, Methods Enzymol 340:624-633 (2001)).
Some assays use preassembled HIV-1 IN on immobilized oligonucleotides (Pace P, et al., J. Med. Chem. 50(9):2225-2239 (2007)), whereas the assay provided herein uses ^32-P-end labeled oligonucleotides in solution and gel-based separation of the reaction products.
Recombinant HIV-1 IN and oligonucleotide substrates were obtained as previously reported (Marinello et al. Biochemistry 2008, 47, 9345-9354; Metifiot et al. Antimicrob. Agents Chemother. 2011, 55, 5127-5133; Hare et al. Mol. Pharmacol. 2011, 80, 565-572). Integrase reactions were performed in 10 μL total volume including 400 nM HIV-1 IN, 20 nM 5′-end [^32P]-labeled oligonucleotide substrate, and 1 μL inhibitor solution in 50 mM MOPS, pH 7.2, 7.5 mM MgCl2, and 14.3 mM 2-mercaptoethanol Inhibitor dilutions were in DMSO, and DMSO without drug was used as a control. Reactions were incubated at 37° C. for 60 min, terminated by adding 10 μL loading dye (10 mM EDTA, 98% deionized formamide, 0.025% xylene cyanol, and 0.025% bromophenol blue), and were subjected to electrophoresis in 20% polyacrylamide-7 M urea gels. Gels were dried and reaction products were visualized and quantified with a Typhoon 8600 (GE Healthcare, Little Chalfont, Buckinghamshire, UK).

[3] = tested on: HIV; assay: microbe, parasite or virus in culture; type: cell-based; conditions: read-out: Antiviral Activity IC50
Method: (§1) In addition to cell-free in vitro assays, eight RCD compounds were examined for inhibition of viral replication (Table 1) (Day J R, et al., J. Virol. Meth. 137(1):125-133 (2006)).
Computational docking was preformed using the Glide software package (Glide v5.5; Schrodinger, Inc.). Enzyme and cell-based assays were performed as previously described (Metifiot M, et al., Biochemistry 49:3715-3722 (2010); Marchand C, Neamati N, & Pommier Y, Methods Enzymol 340:624-633 (2001); Day J R, et al., J. Virol. Meth. 137(1):125-133 (2006)). Complete synthetic and experimental details are provided herein.

[4] = target: T1, HIV-1 IN; conditions: read-out: IC50 against the strand transfer reaction of HIV-1 IN, reported value; Pace et al. 2007; preassembled IN on immobilized oligonucleotides; cited from earlier work
[5] = tested on: P4R5 cells; assay: Toxicity assay on P4R5 cells; type: cell-based; conditions: at a concentration of 10 μM
Source text: as §1

[6] = Human immunodeficiency virus 1, P4/R5, P4R5 cells

| Structure (SMILES) | IC50 ([1]; read-out: 3'-Processing IC50) [µM] | IC50 [2] | further results |
| --- | --- | --- | --- |
| O=C(NCc1ccc(F)cc1)c1cccc(C(=O)NCc2ccc(F)cc2)c1O [RCD-19, N1,N3-Bis(4-fluorobenzyl)-2-hydroxyisophthalamide] | > 300 | > 300 µM |  |
| O=C(NCc1ccc(F)cc1)c1cccc(C(=O)NCc2ccc(F)cc2)[n+]1[O-] [RCD-17, 2,6-Bis((4-fluorobenzyl)carbamoyl)pyridine 1-oxide] |  | > 100 µM | IC50 [3, 6]: > 100 µM; IC50 [1]: > 300 µM |
| Cc1occ(O)c(=O)c1C(=O)NCc1ccc(F)cc1 | > 100 | 56 ± 7 µM |  |
| O=C(NCc1ccc(F)cc1)c1occc(=O)c1O [RCD-4] | > 100 | 0.96 µM |  |
| CNC(=O)c1ccc(C(=O)NCc2ccc(F)cc2)c(O)c1O [RCD-10, N1-(4-Fluorobenzyl)-2,3-dihydroxy-N4-methylterephthalamide] |  | 1.5 µM and < 15 µM and < 2 µM | IC50 [3, 6]: < 4 µM; IC50 ([3]; P4R5 cells): 4 µM; IC50 [1]: > 200 µM |
| O=C(NCc1ccc(F)cc1)c1ccccc1O [RCD-15, N-(4-Fluorobenzyl)-2-hydroxybenzamide] | > 100 | > 100 µM |  |
| O=C(NCc1ccc(F)cc1)c1cccc(=O)n1O [RCD-7] | > 100 | 19.7 ± 1.6 µM |  |
| Cc1nc(C(=O)NCc2ccc(F)cc2)c(O)c(=O)[nH]1 [RCD-1, N-(4-Fluorobenzyl)-5-hydroxy-2-methyl-6-oxo-1,6-dihydropyrimidine-4-carboxamide] |  | ~1 µM and 1 µM | IC50 [1]: > 100 µM; Selectivity for ST versus 3P reaction ([2]; ST versus 3P): selectivity for the ST versus 3P reaction; IC50 [4]: 0.06 µM |
| Cc1cc(=O)c(O)c(C(=O)NCc2ccc(F)cc2)n1C [RCD-3] | > 100 | > 100 µM |  |
| CNC(=O)c1cccc(C(=O)NCc2ccc(F)cc2)c1O [RCD-18, N1-(4-Fluorobenzyl)-2-hydroxy-N3-methylisophthalamide] |  | > 300 µM | IC50 [3, 6]: > 100 µM; IC50 [1]: > 300 µM |
| COc1cccc(C(=O)NCc2ccc(F)cc2)c1O [RCD-9, N-(4-Fluorobenzyl)-2-hydroxy-3-methoxybenzamide] | > 100 | > 100 µM | Strand transfer activity in words ([2]; concentrations as high as 100 μM): complete loss of activity |
| O=C(NCc1ccc(F)cc1)c1cccc(O)c1O [RCD-8, N-(4-Fluorobenzyl)-2,3-dihydroxybenzamide] | > 100 | 39.4 ± 4 µM |  |
| O=C(NCc1ccc(F)cc1)c1ccc2cccc(O)c2n1 [RCD-13, N-(4-Fluorobenzyl)-8-hydroxyquinoline-2-carboxamide] | > 100 | > 100 µM | IC50 [3, 6]: > 100 µM; inhibition at 100 µM ([2]; read-out: Strand transfer inhibition): < 30% |
| Cc1cc(=O)c(O)c(C(=O)NCc2ccc(F)cc2)o1 [RCD-5] | 59.5 ± 1.4 | 0.55 µM and < 15 µM |  |
| Cn1ccc(=O)c(O)c1C(=O)NCc1ccc(F)cc1 [RCD-2] | > 100 | > 100 µM |  |
| O=C(NCc1ccc(F)cc1)c1ccc(C(=O)NCc2ccc(F)cc2)c(O)c1O [RCD-11, N1,N4-Bis(4-fluorobenzyl)-2,3-dihydroxyterephthalamide] | > 300 | 1.7 µM and < 2 µM |  |
| O=C(NCc1ccc(F)cc1)c1ccc2cccnc2c1O [RCD-12] |  |  | IC50 [3, 6]: < 4 µM; IC50 ([3]; P4R5 cells): 2.3 µM |
| O=C(NCc1ccc(F)cc1)c1ccc2ccc[n+]([O-])c2c1O [RCD-14, 7-((4-Fluorobenzyl)carbamoyl)-8-hydroxyquinoline 1-oxide] |  | 3.8 ± 0.3 µM | Toxicity on P4R5 cells [5]: some toxicity; IC50 [1]: 40.5 ± 2 µM |
| O=C(O)c1cccc(C(=O)NCc2ccc(F)cc2)[n+]1[O-] [RCD-16, 2-Carboxy-6-((4-fluorobenzyl)carbamoyl)pyridine 1-oxide] | 21.4 ± 3 | 9.2 ± 1.3 µM |  |
